Results reported in patent US9144239B2, “Macrocyclic picolinamides as fungicides” (DOW AGROSCIENCES LLC, priority 2012, dated 2015).
Read-outs that look alike come from different tables or passages of the source.

Assays:
[1] = tested on: Puccinia triticina; synonym: Puccinia recondita f. sp. tritici; assay: Fungicidal activity: wheat brown rust (PUCCRT), wheat seedlings; type: in vivo
In short: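 Wheat (Yuma) seedlings at first-leaf stage, inoculated with Puccinia triticina spores before or after treatment, held overnight in dark dew room at 22° C, 100% RH, then greenhouse at 24° C. Acetone solutions diluted with nine volumes water containing 110 ppm Triton X-100, sprayed to run-off. Percent disease control derived from severity (0–100%) relative to untreated plants.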

[2] = tested on: Mycosphaerella graminicola; anamorph: Septoria tritici; assay: Fungicidal activity: leaf blotch of wheat (SEPTTR), wheat seedlings; type: in vivo; settings: Zymoseptoria tritici
In short: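 Compounds in acetone were diluted with nine volumes of water containing 110 ppm Triton X-100 and sprayed to run-off on Yuma wheat seedlings at first-leaf stage. Septoria tritici spores were inoculated before or after treatment, followed by dew chambers at 100% RH and 20 °C, then greenhouse at 20 °C. Severity (0–100%) was scored once untreated plants were fully diseased; control was calculated relative to untreated plants.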

[3] = tested on: Puccinia triticina; synonym: Puccinia recondita f. sp. tritici; assay: Fungicide mobility (dropline mobility test): wheat brown rust (PUCCRT); type: in vivo; settings: 1 ug/leaf
Method: Evaluation of Fungicide Mobility: Wheat Brown Rust (Puccinia triticina; Synonym: Puccinia recondita f. sp. tritici; Bayer Code PUCCRT) “Yuma” wheat seedlings were used in the test. One mg of compound was dissolved in 9 μl of EC blank (emulsifiable concentrate) and 500 μl of acetone. Acetone was then evaporated overnight by leaving the vial open in a fume hood. Two milliliters of water containing 110 ppm Triton X-100 was added to each vial to prepare application solutions. A 2 μl drop of formulated material was applied to a marked line on the adaxial surface 5 cm from the leaf tip of the primary leaves. The primary leaves were kept in a horizontal position. Each treatment had 6 replicates. Plants were inoculated with PUCCRT 1-day after (1DPM) or 3-day prior to (3DCM) compound applications. When rust was fully expressed on primary leaves on control plants, the zone of treated leaves that was disease-free in the acropetal direction was measured with a ruler and converted to percent of the distance from marked line to leaf tip.

[4] = tested on: Uncinula necator; assay: Fungicidal activity: grape powdery mildew (UNCINE); type: in vivo; settings: Erysiphe necator, 24 h, 1 Day Protectant, read-out: Disease Control UNCINE 1 DP
Method: Technical grades of materials were dissolved in acetone, which were then mixed with nine volumes of water containing 110 ppm Triton X-100. The fungicide solutions were applied onto wheat seedlings using an automated booth sprayer to run-off. All sprayed plants were allowed to air dry prior to further handling. Wheat plants (variety Yuma) were grown from seed in a greenhouse in 50% mineral soil/50% soil-less Metro mix until the first leaf was fully emerged, with 7-10 seedlings per pot. These plants were inoculated with an aqueous spore suspension of Septoria tritici either prior to or after fungicide treatments. After inoculation the plants were kept in 100% relative humidity (one day in a dark dew chamber followed by two to three days in a lighted dew chamber at 20° C.) to permit spores to germinate and infect the leaf. The plants were then transferred to a greenhouse set at 20° C. for disease to develop. When disease symptoms were fully expressed on the 1st leaves of untreated plants, infection levels were assessed on a scale of 0 to 100 percent disease severity. Percent disease control was calculated using the ratio of disease severity on treated plants relative to untreated plants. Evaluation of Fungicidal Activity: Grape Powdery Mildew (Uncinula necator; Bayer Code […]) Grape seedlings (variety Carignane) were grown in soil-less Metro mix, with one plant per pot, and used in the test when approximately one month old. Plants were inoculated 24 hr after fungicide treatment by shaking spores from infected leaves over test plants. Plants were maintained in a greenhouse set at 20° C. until disease was fully developed. Fungicide formulation, application and disease assessment on the sprayed leaves followed the procedures as described in the Example A.

[5] = tested on: Venturia inaequalis; assay: Fungicidal activity: apple scab (VENTIN); type: in vivo; settings: 24 h, 1 Day Protectant, read-out: Disease Control VENTIN 1 DP
Method: Technical grades of materials were dissolved in acetone, which were then mixed with nine volumes of water containing 110 ppm Triton X-100. The fungicide solutions were applied onto wheat seedlings using an automated booth sprayer to run-off. All sprayed plants were allowed to air dry prior to further handling. Wheat plants (variety Yuma) were grown from seed in a greenhouse in 50% mineral soil/50% soil-less Metro mix until the first leaf was fully emerged, with 7-10 seedlings per pot. These plants were inoculated with an aqueous spore suspension of Septoria tritici either prior to or after fungicide treatments. After inoculation the plants were kept in 100% relative humidity (one day in a dark dew chamber followed by two to three days in a lighted dew chamber at 20° C.) to permit spores to germinate and infect the leaf. The plants were then transferred to a greenhouse set at 20° C. for disease to develop. When disease symptoms were fully expressed on the 1st leaves of untreated plants, infection levels were assessed on a scale of 0 to 100 percent disease severity. Percent disease control was calculated using the ratio of disease severity on treated plants relative to untreated plants. Evaluation of Fungicidal Activity: Apple Scab (Venturia inaequalis; Bayer Code […]) Apple seedlings (variety McIntosh) were grown in soil-less Metro mix, with one plant per pot. Seedlings with two expanding young leaves at the top (older leaves at bottom of the plants were trimmed) were used in the test. Plants were inoculated with a spore suspension of Venturia inaequalis 24 hr after fungicide treatment and kept in a 22° C. dew chamber with 100% RH for 48 hr, and then moved to a greenhouse set at 20° C. for disease to develop. Fungicide formulation, application and disease assessment on the sprayed leaves followed the procedures as described in the Example A.

[6] = tested on: Magnaporthe grisea; anamorph: Pyricularia oryzae; assay: whole plant or invertebrate; type: in vivo; settings: 24 h, read-out: Disease Control PYRIOR 1 DP
[7] = 24 h, 100 ppm, 1 Day Protectant, wheat, read-out: Disease Control PUCCRT 1DP
[8] = 72 h, 100 ppm, 3 Day Curative, wheat, read-out: Disease Control PUCCRT 3DC
[9] = 24 h, 100 ppm, 1 Day Protectant, wheat, read-out: Disease Control SEPTTR 1DP
[10] = 72 h, 100 ppm, 3 Day Curative, wheat, read-out: Disease Control SEPTTR 3DC
[11] = 24 h, 1 Day Protectant Mobility, read-out: Dropline Mobility Test PUCCRT 1DPM
[12] = 72 h, 3 Day Curative Mobility, read-out: Dropline Mobility Test PUCCRT 3DCM

SMILES	pest or weed control at 100 ppm [1, 7] [%]	pest or weed control at 100 ppm [1, 8] [%]	melting point [°C]	pest or weed control at 100 ppm [2, 9] [%]	pest or weed control at 100 ppm [2, 10] [%]	pest or weed control at 1 µg/leaf [3, 11] [%]	pest or weed control at 1 µg/leaf [3, 12] [%]	pest or weed control at 100 ppm [4] [%]	pest or weed control at 100 ppm [5] [%]	pest or weed control at 100 ppm [6] [%]	pest or weed control at 100 ppm ([1]; 24 h, read-out: Disease Control PUCCRT 1DP) [%]	pest or weed control at 100 ppm ([1]; 72 h, read-out: Disease Control PUCCRT 3DC) [%]	pest or weed control at 100 ppm ([2]; 24 h, read-out: Disease Control SEPTTR 1DP) [%]	pest or weed control at 100 ppm ([2]; 72 h, read-out: Disease Control SEPTTR 3DC) [%]
COc1ccnc(C(=O)N[C@H]2COC[C@H](OCC(C)C)[C@@H](OCC(C)C)[C@H](C)OC2=O)c1O [Compound 1, N-((3S,7S,8S,9S)-7,8-diisobutoxy-9-methyl-2-oxo-1,5-dioxonan-3-yl)-3-hydroxy-4-methoxypicolinamide]	80 to 100	80 to 100	111 to 113	80 to 100	80 to 100	80 to 100	80 to 100	–	–	–	–	–	–	–
COc1ccnc(C(=O)N[C@H]2COC[C@H](OCc3ccccc3)[C@@H](OCc3ccccc3)COC2=O)c1OCOC(=O)C(C)C [Compound 6]	80 to 100	–	–	0 to 80	0 to 80	–	–	0 to 80	0 to 80	–	–	–	–	–
COc1ccnc(C(=O)N[C@H]2COC[C@H](OCc3ccccc3)[C@@H](OCc3ccccc3)[C@H](C)OC2=O)c1O [Compound 11, N-((3S,7S,8S,9S)-7,8-bis(benzyloxy)-9-methyl-2-oxo-1,5-dioxonan-3-yl)-3-hydroxy-4-methoxypicolinamide]	80 to 100	80 to 100	144 to 146	80 to 100	0 to 80	0 to 80	0 to 80	–	–	–	–	–	–	–
CCCCO[C@H]1[C@H](C)OC(=O)[C@@H](NC(=O)c2nccc(OC)c2OCOC(C)=O)COC[C@@H]1OCc1ccccc1 [Compound 34]	80 to 100	80 to 100	–	80 to 100	80 to 100	0 to 80	80 to 100	80 to 100	80 to 100	–	–	–	–	–
CCCCO[C@H]1COC[C@H](NC(=O)c2nccc(OC)c2OCOC(C)=O)C(=O)O[C@@H](C)[C@@H]1OCc1ccccc1 [Compound 35]	80 to 100	80 to 100	–	80 to 100	80 to 100	–	–	0 to 80	0 to 80	–	–	–	–	–
CCCCO[C@H]1COC[C@H](NC(=O)c2nccc(OC)c2OCOC(C)=O)C(=O)O[C@@H](C)[C@@H]1OCCC [Compound 45]	80 to 100	80 to 100	–	80 to 100	80 to 100	–	–	80 to 100	0 to 80	–	–	–	–	–
CCCCO[C@H]1COC[C@H](NC(=O)c2nccc(OC)c2OCOC(C)=O)C(=O)O[C@@H](C)[C@@H]1OC(=O)C(C)C [Compound 47]	80 to 100	80 to 100	–	80 to 100	80 to 100	–	–	0 to 80	80 to 100	80 to 100	–	–	–	–
COc1ccnc(C(=O)N[C@H]2COC[C@H](OC)[C@@H](OC)[C@H](C)OC2=O)c1O [Compound 63, N-((3S,7S,8S,9S)-7,8-dimethoxy-9-methyl-2-oxo-1,5-dioxonan-3-yl)-3-hydroxy-4-methoxypicolinamide]	–	–	165 to 167	–	0 to 80	0 to 80	–	–	–	–	–	–	–	–
COc1ccnc(C(=O)N[C@H]2COC[C@H](O)[C@@H](OCC(C)C)[C@H](C)OC2=O)c1O [Compound 72, 3-hydroxy-N-((3S,7S,8R,9S)-7-hydroxy-8-isobutoxy-9-methyl-2-oxo-1,5-dioxonan-3-yl)-4-methoxypicolinamide]	0 to 80	0 to 80	121 to 124	0 to 80	0 to 80	0 to 80	0 to 80	–	–	–	–	–	–	–
COc1ccnc(C(=O)N[C@H]2COC[C@H](OC3CCCCC3)[C@@H](OCC(C)C)[C@H](C)OC2=O)c1O [Compound 73]	80 to 100	80 to 100	122 to 125	80 to 100	80 to 100	0 to 80	0 to 80	–	–	–	–	–	–	–
COc1ccnc(C(=O)N[C@H]2COC[C@H](OCC(C)C)[C@@H](Oc3ccccc3)[C@H](C)OC2=O)c1O [Compound 82, 3-hydroxy-N-((3S,7S,8S,9S)-7-isobutoxy-9-methyl-2-oxo-8-phenoxy-1,5-dioxonan-3-yl)-4-methoxypicolinamide]	–	–	117 to 119	–	–	80 to 100	0 to 80	–	–	–	80 to 100	80 to 100	80 to 100	0 to 80
COc1ccnc(C(=O)N[C@H]2COC[C@H](Oc3ccccc3)[C@@H](OCC(C)C)[C@H](C)OC2=O)c1O [Compound 83]	80 to 100	80 to 100	112 to 113	80 to 100	80 to 100	80 to 100	0 to 80	–	–	–	–	–	–	–
CCCCO[C@H]1COC[C@H](NC(=O)c2nccc(OC)c2O)C(=O)O[C@@H](C)[C@@H]1OCC(C)(C)Cl [Compound 87, N-((3S,7S,8S,9S)-7-butoxy-8-(2-chloro-2-methylpropoxy)-9-methyl-2-oxo-1,5-dioxonan-3-yl)-3-hydroxy-4-methoxypicolinamide]	–	–	115 to 117	–	–	0 to 80	80 to 100	–	–	–	–	–	–	–
